Data published in patent publication US20250282820A1, “PEPTIDE COMPLEX HAVING TRKB BINDING ACTIVITY” (PEPTIDREAM INC, priority 2022, published 2025).
*1 amine or outer side, *2 acyl side, *3 side chain or, on linkers, in order; H or OH if unused. Where a SMILES comes first, the peptide text is derived from it. Bridges are numbered along the chain shown (N, C = ends). Roman numbers before positions name the chains, in order. [ ]: non-standard residue; d: D form. ξ: configuration not given here. X4 = NC(=O)C(CCCCNC(=O)CCOCCC(=O)[*:1])NC(=O)CCOCCOCCOCCOCCOCCCCCOCCOCCN[*:2]; X3 = CC(C)[C@H](CC(=O)[C@H](Cc1cccnc1)N[*:1])C(=O)[*:2]; PEG8 = NCCOCCOCCOCCOCCOCCOCCOCCOCCC(=O)O; 3Pal = N[C@@H](Cc1cccnc1)C(=O)O; Thr(3ξ) = CC(O)[C@H](N)C(=O)O; ξC = NC(CS)C(=O)O

What was measured:
Assay type in all cases: cell-based
[1] = molecular target: T1, TrkB (CellSensor TrkB-NFAT-bla CHO-K1 Cell) (Homo sapiens, UniProt Q16620); assay: pERK1/2 AlphaLISA assay (phosphorylation of ERK) for TrkB agonist activity; conditions: class = peptide concentration giving 50% or more activity; BDNF maximum signal = 100%, no stimulation = 0%; 15 minutes of stimulation
T1 construct: host or cells: CHO-K1 (CellSensor TrkB-NFAT-bla CHO-K1)
Description: To evaluate the TrkB activation potency of the TrkB agonist peptide of the present invention, the phosphorylation of ERK was examined. CellSensor (registered trademark) TrkB-NFAT-bla CHO-K1 Cell (Invitrogen) was cultured in DMEM, high glucose, GlutaMAX (registered trademark) Supplement, and pyruvate (Thermo), comprising 10% FBS (Thermo) and 1× Non-essential amino acids (Thermo), 25 mM HEPES (Thermo), 50 ug/mL Gentamicin, 5 ug/mL Blasticidin (Thermo), and 200 ug/mL Zeocin (Thermo). After the cells were detached using Accutase (Innovative Cell Technologies), they were seeded into a 96-well plate for adherent cultures at 12,500 cells per well and cultured overnight. The next day, for starvation, the culture solution above was replaced with a nutrient starvation medium comprising 0.1% BSA (Sigma), wherein FBS, Blasticidin, and Zeocin were removed from the culture medium, and culturing was performed for 4 hours. Thereafter, Recombinant Human BDNF Protein (R&D Systems) or a peptide was added, and after 15 minutes of stimulation, cells were lysed in the Lysis Buffer provided with the AlphaLISA SureFire Ultra p-Erk1/2 (Thr202/Tyr204) assay kit (PerkinElmer). The assay was performed according to the kit protocol. The signals were detected using a SpectraMax Paradigm Multi-Mode Microplate Reader (Molecular Devices). The obtained signals were analyzed with GraphPad Prism, and the activity (%) was calculated with the maximum value of the signals induced by BDNF as 100% and a signal with no stimulation as 0%. The peptide with 50% or more activity when 1 nM of the peptide was added was evaluated as A, and the peptide with 50% or more activity when 10 nM of the peptide was added was evaluated as B.
The BDNF was evaluated at 8 points (0.0006 nM to 10 nM) from 10 nM using 4-fold dilutions.
(§1) For dimer structures Nos. 1 to 3, the peptide was evaluated at 1 nM, 10 nM, and 100 nM, and, for other dimer structure numbers, the peptide was evaluated at 0.1 nM, 1 nM, and 10 nM. When creating the concentration dependence curve, the BDNF and the peptides were evaluated at 8 points (0.006 nM to 100 nM) from 100 nM using 4-fold dilutions.

[2] = molecular target: T1, TrkB (CellSensor TrkB-NFAT-bla CHO-K1 Cell); assay: NFAT transcriptional reporter assay for TrkB agonist activity; conditions: class = peptide concentration giving 50% or more activity; BDNF maximum signal = 100%, no stimulation = 0%; 5 hours culture
Description: To evaluate the TrkB activation potency of the TrkB agonist peptide of the present invention, transcriptional activity was examined using transcriptional reporters. The CellSensor (registered trademark) TrkB-NFAT-bla CHO-K1 Cell (Invitrogen) used in the AlphaLISA assay was cultured in the medium above. After the cells were detached using Accutase (Innovative Cell Technologies), the cells were suspended in an assay medium, wherein Blasticidin and Zeocin were removed, then seeded into a 96-well plate for adherent cultures at 12,500 cells per well and cultured overnight. Then, BDNF or a peptide was added thereto, and the cells were further cultured in a CO2 incubator for 5 hours. After the 96-well plate was removed from the incubator and brought to room temperature, a detection reagent (LiveBLAzer (registered trademark)-FRET B/G (CCF4-AM) Substrate Mixture) was added while protected from the light, and the 96-well plate was incubated while protected from the light in a moisture box with a lid for 2 hours. For signal detection, a EnVision 2104 Multilabel Plate Reader (PerkinElmer) was used, and the ratio of fluorescence emission value (460 nm/535 nm) was calculated. The obtained numerical values were analyzed with GraphPad Prism, and the activity (%) was calculated with the maximum value of the signals induced by BDNF as 100% and a signal with no stimulation as 0%. The peptide with 50% or more activity when 1 nM of the peptide was added was evaluated as A, the peptide with 50% or more activity when 10 nM of the peptide was added was evaluated as B, and the peptide with 50% or more activity when 100 nM of the peptide was added was evaluated as C. Those that were not evaluated were listed as not tested.
The BDNF was evaluated at 7 points (0.0024 nM to 10 nM) from 10 nM using 4-fold dilutions.
as §1, with “at […]” for “at 8”, “[…]” for “from 100”

TrkB = TrkB (Homo sapiens, UniProt Q16620); assay: PathHunter eXpress TrkB Functional Assay (phosphorylation of TrkB); conditions: maximum signal induced by BDNF = 100%; stimulation for 3 hours
Description: To evaluate the TrkB activation potency of the TrkB agonist peptide of the present invention, the phosphorylation of TrkB was examined. The PathHunter (registered trademark) eXpress TrkB Functional Assay kit (DiscoverX; cells, 96-well plate, medium, and detection reagents included) was used and the evaluation was performed according to the attached protocols. The frozen cells were thawed and suspended in the medium, then seeded into a 96-well plate at 10,000 cells per well and incubated for 48 hours. Thereafter, Recombinant Human BDNF Protein (R&D Systems) or a peptide was added, and after stimulation for 3 hours, a detection reagent was added. The reaction was performed while protected from the light at room temperature for 60 minutes, and luminescent signals were measured using a SpectraMax Paradigm Multi-Mode Microplate Reader (Molecular Devices). The obtained signals were analyzed with GraphPad Prism, and the activity (%) was calculated with the maximum value of the signals induced by BDNF as 100% and a signal with no stimulation as 0%.
The BDNF was evaluated at 8 points (0.006 nM to 100 nM) from 100 nM using 4-fold dilutions. The peptide was evaluated in the measurement ranges A to C shown below. • Measurement range A=6 points from 100 nM using 5-fold dilutions (0.032 nM to 100 nM) • Measurement range B=8 points from 100 nM using 4-fold dilutions (0.006104 nM to 100 nM) • Measurement range C=4 points from 10 nM using 10-fold dilutions (0.01 nM to 10 nM)

T1 sequence (Q16620 32-822): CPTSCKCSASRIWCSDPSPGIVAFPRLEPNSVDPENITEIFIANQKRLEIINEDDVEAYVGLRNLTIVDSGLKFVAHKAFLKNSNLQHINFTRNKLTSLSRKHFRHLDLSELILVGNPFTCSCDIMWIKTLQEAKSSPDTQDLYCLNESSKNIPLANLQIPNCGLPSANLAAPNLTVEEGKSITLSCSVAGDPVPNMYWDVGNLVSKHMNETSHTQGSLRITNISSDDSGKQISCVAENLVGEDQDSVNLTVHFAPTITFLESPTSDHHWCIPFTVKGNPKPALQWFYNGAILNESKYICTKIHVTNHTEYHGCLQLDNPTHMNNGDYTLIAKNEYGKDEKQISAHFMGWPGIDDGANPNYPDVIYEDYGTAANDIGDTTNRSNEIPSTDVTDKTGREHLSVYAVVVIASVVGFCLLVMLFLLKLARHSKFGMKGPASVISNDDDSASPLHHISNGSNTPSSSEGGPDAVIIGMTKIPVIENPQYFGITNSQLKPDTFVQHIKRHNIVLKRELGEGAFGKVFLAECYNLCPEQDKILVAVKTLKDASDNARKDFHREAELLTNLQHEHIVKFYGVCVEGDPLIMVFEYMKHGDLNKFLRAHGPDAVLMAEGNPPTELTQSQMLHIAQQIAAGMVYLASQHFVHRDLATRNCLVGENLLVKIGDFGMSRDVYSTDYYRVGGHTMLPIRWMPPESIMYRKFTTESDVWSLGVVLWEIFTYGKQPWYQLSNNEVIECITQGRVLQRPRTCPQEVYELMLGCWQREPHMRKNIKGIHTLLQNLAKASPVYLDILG
Sequence of TrkB (Q16620 32-822): as above

SMILES | pERK (aLISA) Assay Results [1] | NFAT Assay Results [2] | Emax (TrkB) [%]
CC(C)[C@@H]1NC(=O)[C@H](Cc2cccnc2)NC(=O)[C@H](CCC(=O)O)NC(=O)[C@H](CO)NC(=O)[C@H](Cc2ccc(O)cc2)NC(=O)[C@H]([C@@H](C)O)NC(=O)[C@@H]2CCCN2C(=O)[C@H](Cc2c[nH]c3ccccc23)NC(=O)[C@H](Cc2cccnc2)NC(=O)[C@H](Cc2ccc(O)cc2)NC(=O)[C@@H]2CCCN2C(=O)[C@H](CO)NC(=O)[C@H](Cc2ccccc2)NC(=O)CSC[C@@H](C(=O)NCC(=O)NCCOCCOCCOCCOCCOCCOCCOCCOCCC(=O)NCCCC[C@H](NC(=O)CCOCCOCCOCCOCCOCCOCCOCCOCCNC(=O)CNC(=O)[C@@H]2CSCC(=O)N[C@@H](Cc3ccccc3)C(=O)N[C@@H](CO)C(=O)N3CCC[C@H]3C(=O)N[C@@H](Cc3ccc(O)cc3)C(=O)N[C@@H](Cc3cccnc3)C(=O)N[C@@H](Cc3c[nH]c4ccccc34)C(=O)N3CCC[C@H]3C(=O)N[C@@H]([C@@H](C)O)C(=O)N[C@@H](Cc3ccc(O)cc3)C(=O)N[C@@H](CO)C(=O)N[C@@H](CCC(=O)O)C(=O)N[C@@H](Cc3cccnc3)C(=O)N[C@@H](C(C)C)C(=O)N[C@@H](CCC(=O)O)C(=O)N2)C(N)=O)NC(=O)[C@H](CCC(=O)O)NC1=O [compound 15] (I: {CH2CO}-FSPY[3Pal]WPTYSE[3Pal]VECG[PEG8]K-NH2 / II: {CH2CO}-FSPY[3Pal]WPTYSE[3Pal]VECG[PEG8]; amide I:18-II:C (inferred); thioether I:N-I:15, II:N-II:15 (inferred)) | A (The peptide with 50% or more activity when 1 nM of the peptide was added was evaluated as A) | A (The peptide with 50% or more activity when 1 nM of the peptide was added was evaluated as A) | 104
CC(C)C[C@@H]1NC(=O)[C@H](CO)NC(=O)[C@H](Cc2ccc(O)cc2)NC(=O)[C@H]([C@@H](C)O)NC(=O)[C@@H]2CCCN2C(=O)[C@H](Cc2c[nH]c3ccccc23)NC(=O)[C@H](Cc2cccnc2)NC(=O)[C@H](Cc2ccc(O)cc2)NC(=O)[C@@H]2CCCN2C(=O)[C@H](CC(C)C)NC(=O)[C@H](Cc2ccccc2)NC(=O)CSC[C@@H](C(=O)NCC(=O)NCCOCCOCCOCCOCCOCCOCCOCCOCCC(=O)NCCCC[C@H](NC(=O)CCOCCOCCOCCOCCOCCOCCOCCOCCNC(=O)CNC(=O)[C@@H]2CSCC(=O)N[C@@H](Cc3ccccc3)C(=O)N[C@@H](CC(C)C)C(=O)N3CCC[C@H]3C(=O)N[C@@H](Cc3ccc(O)cc3)C(=O)N[C@@H](Cc3cccnc3)C(=O)N[C@@H](Cc3c[nH]c4ccccc34)C(=O)N3CCC[C@H]3C(=O)N[C@@H]([C@@H](C)O)C(=O)N[C@@H](Cc3ccc(O)cc3)C(=O)N[C@@H](CO)C(=O)N[C@@H](CC(C)C)C(=O)N[C@@H](Cc3cccnc3)C(=O)N[C@@H](C(C)C)C(=O)N[C@@H](Cc3c[nH]c4ccccc34)C(=O)N2)C(N)=O)NC(=O)[C@H](Cc2c[nH]c3ccccc23)NC(=O)[C@H](C(C)C)NC(=O)[C@H](Cc2cccnc2)NC1=O [Dimer Structure No. 2] (I: {CH2CO}-FLPY[3Pal]WPTYSL[3Pal]VWCG[PEG8]K-NH2 / II: {CH2CO}-FLPY[3Pal]WPTYSL[3Pal]VWCG[PEG8]; amide I:18-II:C; thioether I:N-I:15, II:N-II:15) | B (the peptide with 50% or more activity when 10 nM of the peptide was added was evaluated as B) | C (the peptide with 50% or more activity when 100 nM of the peptide was added was evaluated as C) | –
CC(=O)NCCCC[C@@H]1NC(=O)[C@H](CO)NC(=O)[C@H](Cc2ccc(O)cc2)NC(=O)[C@H]([C@@H](C)O)NC(=O)[C@@H]2CCCN2C(=O)[C@H](Cc2c[nH]c3ccccc23)NC(=O)[C@H](Cc2cccnc2)NC(=O)[C@H](Cc2ccc(O)cc2)NC(=O)[C@@H]2CCCN2C(=O)[C@H](CC(C)C)NC(=O)[C@H](Cc2ccccc2)NC(=O)CSCC(C(=O)NCC(=O)NCCOCCOCCOCCOCCOCCOCCOCCOCCC(=O)N[C@@H](CCCCNC(=O)CCOCCC(=O)NCCCCC(NC(=O)CCOCCOCCOCCOCCOCCCCCOCCOCCNC(=O)CNC(=O)C2CSCC(=O)N[C@@H](Cc3ccccc3)C(=O)N[C@@H](CC(C)C)C(=O)N3CCC[C@H]3C(=O)N[C@@H](Cc3ccc(O)cc3)C(=O)N[C@@H](Cc3cccnc3)C(=O)N[C@@H](Cc3c[nH]c4ccccc34)C(=O)N3CCC[C@H]3C(=O)N[C@@H](C(C)O)C(=O)N[C@@H](Cc3ccc(O)cc3)C(=O)N[C@@H](CO)C(=O)N[C@@H](CCCCNC(C)=O)C(=O)N[C@@H](Cc3cccnc3)C(=O)N[C@@H](C(C)C)C(=O)N[C@@H](CCC(=O)O)C(=O)N2)C(N)=O)C(N)=O)NC(=O)[C@H](CCC(=O)O)NC(=O)[C@H](C(C)C)CC(=O)[C@H](Cc2cccnc2)NC1=O (stereo partly shown) [Dimer Structure No. 40] (I: {CH2CO}-FLPY[3Pal]WPTYSK(Ac)[X3]E[ξC]G[PEG8]K-NH2 / II: {CH2CO}-FLPY[3Pal]WP[Thr(3ξ)]YSK(Ac)[3Pal]VE[ξC]G; linker I:17-II:C via X4; thioether I:N-I:14, II:N-II:15) | B (the peptide with 50% or more activity when 10 nM of the peptide was added was evaluated as B) | B (the peptide with 50% or more activity when 10 nM of the peptide was added was evaluated as B) | –
